Results reported in PubChem BioAssay (NCI).
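Test compounds were applied to cells in 96-well plates for 48 hours at 5 doses. Here, GI50 denotes the concentration required for 50% inhibition of growth. The concentration for full growth arrest is given as TGI.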

What was measured:
Assay in all cases: NCI tumour cell line growth inhibition, 48 h
786-0 renal = test system: 786-0 renal
A498 renal = test system: A498 renal
A549 NSCLC = test system: A549 NSCLC
ACHN renal = test system: ACHN renal
BT-549 breast = test system: BT-549 breast
CAKI-1 renal = test system: CAKI-1 renal
CCRF-CEM leukemia = test system: CCRF-CEM leukemia
COLO 205 colon = test system: COLO 205 colon
DU-145 prostate = test system: DU-145 prostate
EKVX NSCLC = test system: EKVX NSCLC
HCC-2998 colon = test system: HCC-2998 colon
HCT-116 colon = test system: HCT-116 colon
HCT-15 colon = test system: HCT-15 colon
HL-60(TB) leukemia = test system: HL-60(TB) leukemia
HOP-62 NSCLC = test system: HOP-62 NSCLC
HOP-92 NSCLC = test system: HOP-92 NSCLC
HS 578T breast = test system: HS 578T breast
HT29 colon = test system: HT29 colon
IGROV1 ovarian = test system: IGROV1 ovarian
K-562 leukemia = test system: K-562 leukemia
KM12 colon = test system: KM12 colon
LOX IMVI melanoma = test system: LOX IMVI melanoma
M14 melanoma = test system: M14 melanoma
MALME-3M melanoma = test system: MALME-3M melanoma
MCF7 breast = test system: MCF7 breast
MDA-MB-231 breast = test system: MDA-MB-231 breast
MDA-MB-435 = test system: MDA-MB-435
MDA-MB-468 breast = test system: MDA-MB-468 breast
MOLT-4 leukemia = test system: MOLT-4 leukemia
NCI-H226 lung = test system: NCI-H226 lung
NCI-H23 lung = test system: NCI-H23 lung
NCI-H460 lung = test system: NCI-H460 lung
NCI-H522 lung = test system: NCI-H522 lung
NCI/ADR-RES ovarian = test system: NCI/ADR-RES ovarian
OVCAR-3 ovarian = test system: OVCAR-3 ovarian
OVCAR-4 ovarian = test system: OVCAR-4 ovarian
OVCAR-5 ovarian = test system: OVCAR-5 ovarian
OVCAR-8 ovarian = test system: OVCAR-8 ovarian
PC-3 prostate = test system: PC-3 prostate
RPMI-8226 leukemia = test system: RPMI-8226 leukemia
RXF 393 renal = test system: RXF 393 renal
SF-268 CNS = test system: SF-268 CNS
SF-295 CNS = test system: SF-295 CNS
SF-539 CNS = test system: SF-539 CNS
SK-MEL-2 melanoma = test system: SK-MEL-2 melanoma
SK-MEL-28 melanoma = test system: SK-MEL-28 melanoma
SK-MEL-5 melanoma = test system: SK-MEL-5 melanoma
SK-OV-3 ovarian = test system: SK-OV-3 ovarian
SN12C renal = test system: SN12C renal
SNB-19 CNS = test system: SNB-19 CNS
SNB-75 CNS = test system: SNB-75 CNS
SR leukemia = test system: SR leukemia
SW-620 colon = test system: SW-620 colon
T-47D breast = test system: T-47D breast
TK-10 renal = test system: TK-10 renal
U251 CNS = test system: U251 CNS
UACC-257 melanoma = test system: UACC-257 melanoma
UACC-62 melanoma = test system: UACC-62 melanoma
UO-31 renal = test system: UO-31 renal

O=C(CSc1nnc(-c2ccc(-c3nc4ccc(Cl)cc4[nH]3)cc2)o1)Nc1ccc(Cl)cc1
GI50 (786-0 renal): 2.21 µM
TGI (786-0 renal): 5.57 µM
GI50 (A498 renal): 16.2 µM
TGI (A498 renal): 30.6 µM
GI50 (A549 NSCLC): 1.8 µM
TGI (A549 NSCLC): 3.97 µM
GI50 (ACHN renal): 1.91 µM
TGI (ACHN renal): 4.9 µM
GI50 (BT-549 breast): 2.15 µM
TGI (BT-549 breast): 6.23 µM
GI50 (CAKI-1 renal): 2.43 µM
TGI (CAKI-1 renal): 8.47 µM
GI50 (CCRF-CEM leukemia): 2.59 µM
TGI (CCRF-CEM leukemia): 11 µM
GI50 (COLO 205 colon): 11.8 µM
TGI (COLO 205 colon): 36 µM
GI50 (DU-145 prostate): 4.14 µM
TGI (DU-145 prostate): 15.6 µM
GI50 (EKVX NSCLC): 2.7 µM
TGI (EKVX NSCLC): 12.7 µM
GI50 (HCC-2998 colon): 11.2 µM
TGI (HCC-2998 colon): 27.3 µM
GI50 (HCT-116 colon): 2.92 µM
TGI (HCT-116 colon): 11.8 µM
GI50 (HCT-15 colon): 2.41 µM
TGI (HCT-15 colon): 11.6 µM
GI50 (HL-60(TB) leukemia): 2.82 µM
TGI (HL-60(TB) leukemia): 12.5 µM
GI50 (HOP-62 NSCLC): 1.62 µM
TGI (HOP-62 NSCLC): 3.69 µM
GI50 (HOP-92 NSCLC): 2.35 µM
TGI (HOP-92 NSCLC): 9.26 µM
GI50 (HS 578T breast): 2.27 µM
TGI (HS 578T breast): 7.65 µM
GI50 (HT29 colon): 3.2 µM
TGI (HT29 colon): 10.9 µM
GI50 (IGROV1 ovarian): 4.66 µM
TGI (IGROV1 ovarian): 18.4 µM
GI50 (K-562 leukemia): 2.19 µM
TGI (K-562 leukemia): 11.1 µM
GI50 (KM12 colon): 4.05 µM
TGI (KM12 colon): 18.5 µM
GI50 (LOX IMVI melanoma): 1.4 µM
TGI (LOX IMVI melanoma): 2.8 µM
GI50 (M14 melanoma): 3.05 µM
TGI (M14 melanoma): 11 µM
GI50 (MALME-3M melanoma): 1.85 µM
TGI (MALME-3M melanoma): 4.31 µM
GI50 (MCF7 breast): 2.82 µM
TGI (MCF7 breast): 13.3 µM
GI50 (MDA-MB-231 breast): 1.63 µM
TGI (MDA-MB-231 breast): 3.49 µM
GI50 (MDA-MB-435): 3.07 µM
TGI (MDA-MB-435): 10.6 µM
GI50 (MDA-MB-468 breast): 2.37 µM
TGI (MDA-MB-468 breast): 8.01 µM
GI50 (MOLT-4 leukemia): 2.81 µM
TGI (MOLT-4 leukemia): 14.3 µM
GI50 (NCI-H226 lung): 1.6 µM
TGI (NCI-H226 lung): 4.36 µM
GI50 (NCI-H23 lung): 1.99 µM
TGI (NCI-H23 lung): 4.74 µM
GI50 (NCI-H460 lung): 1.96 µM
TGI (NCI-H460 lung): 4.29 µM
GI50 (NCI-H522 lung): 1.85 µM
TGI (NCI-H522 lung): 5.47 µM
GI50 (NCI/ADR-RES ovarian): 4.01 µM
TGI (NCI/ADR-RES ovarian): 18.9 µM
GI50 (OVCAR-3 ovarian): 3.18 µM
TGI (OVCAR-3 ovarian): 10.6 µM
GI50 (OVCAR-4 ovarian): 4.48 µM
TGI (OVCAR-4 ovarian): 19.3 µM
GI50 (OVCAR-5 ovarian): 3.11 µM
TGI (OVCAR-5 ovarian): 14.6 µM
GI50 (OVCAR-8 ovarian): 2.04 µM
TGI (OVCAR-8 ovarian): 5.16 µM
GI50 (PC-3 prostate): 1.9 µM
TGI (PC-3 prostate): 5.37 µM
GI50 (RPMI-8226 leukemia): 3.99 µM
TGI (RPMI-8226 leukemia): 17.4 µM
GI50 (RXF 393 renal): 1.93 µM
TGI (RXF 393 renal): 5 µM
GI50 (SF-268 CNS): 3.04 µM
TGI (SF-268 CNS): 11.7 µM
GI50 (SF-295 CNS): 1.99 µM
TGI (SF-295 CNS): 5.23 µM
GI50 (SF-539 CNS): 1.67 µM
TGI (SF-539 CNS): 3.15 µM
GI50 (SK-MEL-2 melanoma): 3.02 µM
TGI (SK-MEL-2 melanoma): 13.1 µM
GI50 (SK-MEL-28 melanoma): 1.53 µM
TGI (SK-MEL-28 melanoma): 3.33 µM
GI50 (SK-MEL-5 melanoma): 2.92 µM
TGI (SK-MEL-5 melanoma): 11.2 µM
GI50 (SK-OV-3 ovarian): 5.93 µM
TGI (SK-OV-3 ovarian): 20.8 µM
GI50 (SN12C renal): 1.72 µM
TGI (SN12C renal): 4.03 µM
GI50 (SNB-19 CNS): 3.45 µM
TGI (SNB-19 CNS): 12.3 µM
GI50 (SNB-75 CNS): 2.33 µM
TGI (SNB-75 CNS): 8.66 µM
GI50 (SR leukemia): 1.85 µM
TGI (SR leukemia): 6.63 µM
GI50 (SW-620 colon): 2.94 µM
TGI (SW-620 colon): 14.1 µM
GI50 (T-47D breast): 2.8 µM
TGI (T-47D breast): 19.8 µM
GI50 (TK-10 renal): 15.6 µM
TGI (TK-10 renal): 32.2 µM
GI50 (U251 CNS): 1.96 µM
TGI (U251 CNS): 4.07 µM
GI50 (UACC-257 melanoma): 2.62 µM
TGI (UACC-257 melanoma): 10 µM
GI50 (UACC-62 melanoma): 1.7 µM
TGI (UACC-62 melanoma): 3.86 µM
GI50 (UO-31 renal): 3.59 µM
TGI (UO-31 renal): 15.8 µM
